# Reference: paper PMC11505029, “Isatin Bis-Imidathiazole Hybrids Identified as FtsZ Inhibitors with On-Target Activity Against Staphylococcus aureus” (Antibiotics, 2024)
# “Also recorded” adds a separate entry of the source.
# Key:
# [1] = tested on: E. coli ATCC 25922; experiment: broth microdilution antimicrobial activity, E. coli reference strain; type: cell-based, Escherichia coli; details: 100 μM, growth relative to positive control, mean ± SD
# Protocol: Reference bacterial strains of Staphylococcus aureus (ATCC 25923), Escherichia coli (ATCC 25922), and Candida albicans (ATCC 10231) were used in this study as Gram-positive, Gram-negative, and fungal models, respectively. These reference strains were purchased from the American Type Culture Collection (ATCC, Manassas, VA, USA); bacterial cultures were routinely grown at 37 °C on 5% blood agar plate, while fungal cultures on Sabouraud Dextrose Agar (Biolife Italiana S.r.l., Milan, Italy).
# The dry powder of the isatin derivatives was resuspended in dimethylsulfoxide (DMSO) at 20 mM and used as stock solutions. For biological investigations, compounds were used in the range 100–0.78 µM, and the solvent in the corresponding percentage range.
# The antimicrobial activity of the compounds was assessed by a well-established broth microdilution procedure in microtiter plates and in compliance with the Clinical and laboratory Standard Institute (CLSI) guidelines (Clinical and Laboratory Standards Institute, Wayne, PA, USA). In short, microbial inocula were prepared at 0.5 McFarland in PBS and, subsequently, bacterial suspensions were diluted 1:200 in Mueller–Hinton broth (Sigma-Aldrich, St. Louis, MO, USA), while fungal inoculum was diluted 1:20 in RPMI-1640 medium (Gibco®, ThermoFisher Scientific Inc., Waltham, MA, USA), containing 2% glucose and 0.3% levo-glutamine buffered to pH 7.0 with 0.165 M 3-(N-morpholino)propanesulfonic acid (MOPS). A total of 100 µL of these microbial suspensions were introduced in a 96-well microplate and incubated with 100 µL of the compounds, two-fold serially diluted in the range of 100–0.19 µM. Positive controls (microbial suspensions in regular media), negative controls (only compounds), and solvent controls (microbial suspensions incubated with DMSO dilutions) were included in the tests. The plate was incubated at 37 °C for 24 h, and subsequently, the optical density at 630 nm (OD630nm) was spectrophotometrically measured. Each experiment was carried out with three technical replicates (i.e., three wells per sample) and repeated at least two times for statistical power. […] IC50 values, corresponding to the concentration of the compound giving rise to an inhibition of growth of 50%, were obtained by interpolation on dose–response curves generated by plotting the percentages of growth inhibition, relative to the positive control (set to 100% of growth), as a function of the tested concentrations (on a logarithm scale). Statistical analysis was carried out using GraphPad Prism version 9.4.1 for Windows (GraphPad Software, San Diego, CA, USA, www.graphpad.com).
# [2] = cell viability and proliferation assay (WST8/CCK-8); type: cell-based; details: African green monkey, Vero cells (ATCC CCL-81); Vero cells; mean [95% confidence interval]
# Protocol: (§1) Vero cell line (ATCC CCL-81) was selected as the model system to assess the effect of the isatin hybrids on normal epithelial cells, and a previously established protocol was used with minor modifications. Briefly, cells were cultured in RPMI-1640 medium supplemented with 10% fetal bovine serum (FBS) (Carlo Erba Reagents, Milan, Italy), 100 U/mL penicillin, and 100 µg/mL streptomycin at 37 °C with 5% CO2. For experiments, cells were seeded into 96-well plates at 10^4 cells/well, and incubated at 37 °C for 24 h. Following washes with PBS, the cell monolayer was incubated with 100 µL of medium containing the 2-fold serial dilutions of the compounds. Both untreated cells and cells incubated with medium containing solvent dilutions were included in each experiment as controls. The cell viability was assessed by a WST8-based assay according to the manufacturer’s instructions (CCK-8, Cell Counting Kit-8, Dojindo Molecular Technologies, Rockville, MD, USA). After 48 h of incubation, culture medium was removed from each well, the monolayer was washed with PBS, and 100 µL of fresh medium containing 10 µL of CCK-8 solution were added. After 2 h at 37 °C, the OD450nm was read, and data were expressed as the percentage of the cell viability relative to the untreated controls. The CC50 was obtained from the corresponding dose–response curves generated, as previously reported for IC50 values.
# [3] = tested on: Vero cell line (ATCC CCL-81); experiment: as above; type: cell-based; details: 100 μM, viability relative to untreated controls, mean ± SD
# Protocol: as §1
# [4] = tested on: human red blood cells (hRBCs); experiment: hemolytic assay; type: cell-based; details: for Hemolytic activity, percentage values: mean ± SD
# Protocol: The hemolytic activity of some selected compounds was evaluated as the amount of hemoglobin released by the disruption of human red blood cells (hRBCs). For the experiments, fresh hRBCs, obtained from peripheral blood of anonymous blood donors available for research purposes, were collected by centrifugation at 1500 g for 10 min, washed 3 times with PBS, and resuspended to a final concentration of 4% w/v hRBCs in PBS. Then, 100 µL of hRBCs suspension and an equal volume of the 2-fold dilutions of the […] were mixed in a 96-well plate and incubated for 1 h at 37 °C. […] Untreated hRBCs (incubated with PBS) and hRBCs incubated with 1% Triton X-100 were employed as negative and positive controls, respectively. The hemolysis percentage was calculated as [OD405nm (sample) − OD405nm (negative control)]/[OD405nm (positive control) − OD405nm (negative control)] × 100. Minimal hemolytic concentrations (MHCs) were defined as the compound concentrations causing 10% hemolysis.
# [5] = tested on: S. aureus MRSA 2; experiment: dose-response against clinical isolate MRSA 2; type: cell-based; details: Staphylococcus aureus, mean [95% confidence interval]
# Protocol: (§2) The antimicrobial activity of the compounds was assessed by a well-established broth microdilution procedure in microtiter plates and in compliance with the Clinical and laboratory Standard Institute (CLSI) guidelines (Clinical and Laboratory Standards Institute, Wayne, PA, USA). In short, microbial inocula were prepared at 0.5 McFarland in PBS and, subsequently, bacterial suspensions were diluted 1:200 in Mueller–Hinton broth (Sigma-Aldrich, St. Louis, MO, USA), while fungal inoculum was diluted 1:20 in RPMI-1640 medium (Gibco®, ThermoFisher Scientific Inc., Waltham, MA, USA), containing 2% glucose and 0.3% levo-glutamine buffered to pH 7.0 with 0.165 M 3-(N-morpholino)propanesulfonic acid (MOPS). A total of 100 µL of these microbial suspensions were introduced in a 96-well microplate and incubated with 100 µL of the compounds, two-fold serially diluted in the range of 100–0.19 µM. Positive controls (microbial suspensions in regular media), negative controls (only compounds), and solvent controls (microbial suspensions incubated with DMSO dilutions) were included in the tests. The plate was incubated at 37 °C for 24 h, and subsequently, the optical density at 630 nm (OD630nm) was spectrophotometrically measured. Each experiment was carried out with three technical replicates (i.e., three wells per sample) and repeated at least two times for statistical power. […]
# [6] = tested on: S. aureus MRSA 3; experiment: dose-response against clinical isolate MRSA 3; type: cell-based; details: Staphylococcus aureus, mean [95% confidence interval]
# Protocol: as §2
# [7] = tested on: S. aureus MRSA 4; experiment: dose-response against clinical isolate MRSA 4; type: cell-based; details: Staphylococcus aureus, mean [95% confidence interval]
# Protocol: as §2
# [8] = tested on: S. aureus MRSA 5; experiment: dose-response against clinical isolate MRSA 5; type: cell-based; details: Staphylococcus aureus, mean [95% confidence interval]
# Protocol: as §2
structure (smiles),measurement,setting,value
"O=C1Nc2cc(OC(F)(F)F)ccc2C1(c1c(Cl)nc2sccn12)c1c(Cl)nc2sccn12 [Compound 11, 3,3-bis(6-Chloroimidazo[2,1-b]thiazol-5-yl)-6-(trifluoromethoxy)indolin-2-one]","Microbial growth, E. coli",[1],did not inhibit the growth
same,activity at 100 µM,"[1]; Escherichia coli, ATCC25922, read-out: Microbial growth, E. coli",108 ± 2.4%
same,CC50 at 48 h,[2],63.3 µM
same,"Cell proliferation, Vero",[3],most toxic
same,viability at 100 µM,"[3]; Chlorocebus sabaeus, Vero, 48 h, read-out: Cell proliferation, Vero",21.1 ± 3.3%
same,"Hemolytic activity, percentage values",[4]; 1.56 µM,0.9 ± 1.8%
same,"Hemolytic activity, percentage values",[4]; 3.125 µM,1.1 ± 1.2%
same,"Hemolytic activity, percentage values",[4]; 6.25 µM,2.3 ± 0.2%
same,"Hemolytic activity, percentage values",[4]; 12.5 µM,2.2 ± 0.5%
same,"Hemolytic activity, percentage values",[4]; 25 µM,1.8 ± 1.5%
same,"Hemolytic activity, percentage values",[4]; 50 µM,0.7 ± 1.5%
same,"Hemolytic activity, percentage values",[4]; 100 µM,1.1 ± 0.4%
same,hemolytic activity,[4]; range 100–1.56 µM,did not show an appreciable hemolytic activity; also recorded: no hemolytic property
same,IC50,[5],27.5 µM
same,IC50,[6],8.7 µM
same,IC50,[7],11.3 µM
same,IC50,[8],21.2 µM
